In ChEMBL document CHEMBL1144618, “Convenient synthesis and in vitro pharmacological activity of 2-thioanalogs of salvinorins A and B” (Bioorg Med Chem Lett, 2007):
pEC50, pKi: −log10 of the molar value.

Assays:
[1] = biological target: Kappa-type opioid receptor (Rattus norvegicus, UniProt P34975); experiment: Displacement of [3H]U-69593 from rat cloned KOR
[2] = biological target: Kappa-type opioid receptor (Homo sapiens, UniProt P41145); experiment: Activity at human kappa opioid receptor expressed in HEK293 cells as intracellular calcium mobilization; assay type: functional, cell-based
Sequence of Kappa-type opioid receptor (Homo sapiens, UniProt P41145) (P41145 whole entry): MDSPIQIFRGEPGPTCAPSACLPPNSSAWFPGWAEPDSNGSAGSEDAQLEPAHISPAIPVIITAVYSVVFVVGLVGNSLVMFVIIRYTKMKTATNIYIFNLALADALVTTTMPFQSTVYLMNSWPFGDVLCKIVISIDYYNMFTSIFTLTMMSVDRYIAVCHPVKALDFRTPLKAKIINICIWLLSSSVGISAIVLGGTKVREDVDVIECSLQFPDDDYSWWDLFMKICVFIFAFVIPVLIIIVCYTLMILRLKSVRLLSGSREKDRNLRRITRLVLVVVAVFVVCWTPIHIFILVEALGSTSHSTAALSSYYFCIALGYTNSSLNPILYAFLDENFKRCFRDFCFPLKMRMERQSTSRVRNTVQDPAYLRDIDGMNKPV

Sequence of Kappa-type opioid receptor (Rattus norvegicus, UniProt P34975) (P34975 whole entry): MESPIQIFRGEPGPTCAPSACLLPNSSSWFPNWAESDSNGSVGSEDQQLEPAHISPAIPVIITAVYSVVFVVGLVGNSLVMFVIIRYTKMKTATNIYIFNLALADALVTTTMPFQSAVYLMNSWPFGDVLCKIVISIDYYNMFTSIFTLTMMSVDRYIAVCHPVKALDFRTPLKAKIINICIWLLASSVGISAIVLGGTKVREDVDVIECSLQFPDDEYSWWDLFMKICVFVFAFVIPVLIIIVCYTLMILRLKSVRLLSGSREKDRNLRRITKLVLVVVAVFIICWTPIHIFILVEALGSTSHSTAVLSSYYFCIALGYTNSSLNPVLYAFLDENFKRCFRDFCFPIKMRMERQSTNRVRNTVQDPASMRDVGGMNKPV

| SMILES | pKi [1] | pEC50 [2] | Emax [2] |
| --- | --- | --- | --- |
| COC(=O)[C@@H]1C[C@H](S)C(=O)[C@H]2[C@@]1(C)CC[C@H]1C(=O)O[C@H](c3ccoc3)C[C@]21C [2-THIOSALVINORIN B] | 7.26 | 6.54 | 89% |
| COC(=O)[C@@H]1C[C@@H](SC(C)=O)C(=O)[C@H]2[C@@]1(C)CC[C@H]1C(=O)O[C@H](c3ccoc3)C[C@]21C [2-EPI-2-THIOSALVINORIN A] | 6.82 | 6.91 | 106% |
| COC(=O)[C@@H]1C[C@@H](S)C(=O)[C@H]2[C@@]1(C)CC[C@H]1C(=O)O[C@H](c3ccoc3)C[C@]21C [2-EPI-2-THIOSALVINORIN B] | 6.26 | < 5.70 | 71% |
